Assay: Inhibition of advanced glycation end product formation at 1 mM after 7 days by fluorescence assay
Format: physicochemical
Settings: 168 h, 1000 µM

Row | Compound | inhibition (INH) [%]
1 | COc1cc(-c2cc(=O)c3c(O)c([C@H]4C[C@@H](O)[C@H](O)[C@H](C)O4)c(O[C@@H]4O[C@H](CO)[C@@H](O)[C@H](O)[C@H]4O)cc3o2)ccc1O | 53
2 | COc1cc(-c2cc(=O)c3c(O)c([C@H]4C[C@@H](O)[C@H](O)[C@H](C)O4)c(O)cc3o2)ccc1O | 64.2
3 | N=C(N)NN [PIMAGEDINE] | 60.5
